According to ChEMBL document CHEMBL1201862, “PubChem BioAssay data set” (2004):
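96-well plates; 48 h exposure; 5 concentrations. Endpoints by linear interpolation between flanking doses. Not reached: highest tested concentration assigned. GI50: concentration for 50% inhibition of growth.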 The source made the active and inactive calls. Rule as the data show it: active = GI50 up to about 1.1 µM and inactive = higher.

Key:
Assay in all cases: NCI anticancer screen, dose series, 48 h
[1] = tested on: MCF7
[2] = tested on: MDA-MB-435
[3] = tested on: 786-0
[4] = tested on: Hs-578T
[5] = tested on: IGROV-1
[6] = tested on: HOP-62
[7] = tested on: K562
[8] = tested on: UACC-62
[9] = tested on: EKVX
[10] = tested on: MDA-N
[11] = tested on: HOP-92
[12] = tested on: SF-268
[13] = tested on: LOX IMVI
[14] = tested on: NCI-H226
[15] = tested on: KM12
[16] = tested on: T47D
[17] = tested on: NCI-H23
[18] = tested on: A549
[19] = tested on: SK-MEL-28
[20] = tested on: RXF 393

| Structure (SMILES) | GI50 [1] | GI50 [2] | GI50 [3] | GI50 [4] | GI50 [5] | GI50 [6] | GI50 [7] | GI50 [8] | GI50 [9] | GI50 [10] | GI50 [11] | GI50 [12] | GI50 [13] | GI50 [14] | GI50 [15] | GI50 [16] | GI50 [17] | GI50 [18] | GI50 [19] | GI50 [20] |
| --- | --- | --- | --- | --- | --- | --- | --- | --- | --- | --- | --- | --- | --- | --- | --- | --- | --- | --- | --- | --- |
| O=C1NC(=O)C(Cc2ccccc2)(c2cccnc2)N1 (stereo not given) | > 100 µM (inactive) | > 100 µM (inactive) | > 100 µM (inactive) | > 100 µM (inactive) | > 100 µM (inactive) | > 100 µM (inactive) | > 100 µM (inactive) | > 100 µM (inactive) | > 100 µM (inactive) | > 100 µM (inactive) | > 100 µM (inactive) | > 100 µM (inactive) | > 100 µM (inactive) | > 100 µM (inactive) | > 100 µM (inactive) | > 100 µM (inactive) | > 100 µM (inactive) | > 100 µM (inactive) | > 100 µM (inactive) | > 100 µM (inactive) |
| CCN(Cc1cc(Cl)cc(C)c1O)Cc1c(O)ccc2ccccc12 | 19.9 µM (inactive) | 15.8 µM (inactive) | 16.8 µM (inactive) | 15.9 µM (inactive) | 15.3 µM (inactive) | 12.5 µM (inactive) | 19.1 µM (inactive) | 15.7 µM (inactive) | 17.3 µM (inactive) | 18.1 µM (inactive) | 11.2 µM (inactive) | 18.2 µM (inactive) | 18.2 µM (inactive) | 19.1 µM (inactive) | 17.3 µM (inactive) | 16.6 µM (inactive) | 15.6 µM (inactive) | 18.8 µM (inactive) | 17.9 µM (inactive) | 16.4 µM (inactive) |
| NS(=O)(=O)c1ccc(Nc2c3ccccc3nc3c(C(=O)NCCO)cccc23)cc1 | 0.0373 µM (active) | 0.203 µM (active) | 0.145 µM (active) | 0.188 µM (active) | 0.115 µM (active) | 0.167 µM (active) | 0.13 µM (active) | 0.135 µM (active) | 0.251 µM (active) | 0.196 µM (active) | 0.148 µM (active) | 0.141 µM (active) | 0.124 µM (active) | 0.113 µM (active) | 0.137 µM (active) | 0.03 µM (active) | 0.132 µM (active) | 0.178 µM (active) | 0.167 µM (active) | 0.0857 µM (active) |
| COc1ccc(/C=C2\CN(C)CC3C2=NC(=S)NC3c2ccc(OC)cc2)cc1 (stereo not given) | 2.82 µM (inactive) | 1.33 µM (inactive) | 3.66 µM (inactive) | 52.7 µM (inactive) | 2.98 µM (inactive) | 6.46 µM (inactive) | 3.95 µM (inactive) | 4.58 µM (inactive) | 11.5 µM (inactive) | 1.08 µM (active) | 3.21 µM (inactive) | 5.64 µM (inactive) | 4.76 µM (inactive) | 41.5 µM (inactive) | 2.97 µM (inactive) | 4.11 µM (inactive) | 7.96 µM (inactive) | 4 µM (inactive) | > 66.7 µM (inactive) | 2.17 µM (inactive) |
| COC(=O)[C@]1(NC(=O)c2ccccc2)C[C@H]1C=O | > 100 µM (inactive) | > 100 µM (inactive) | > 100 µM (inactive) | > 55.5 µM (inactive) | > 100 µM (inactive) | > 100 µM (inactive) | > 100 µM (inactive) | > 64.7 µM (inactive) | > 100 µM (inactive) | > 100 µM (inactive) | > 100 µM (inactive) | > 84.5 µM (inactive) | 98.6 µM (inactive) | 46.7 µM (inactive) | > 61.5 µM (inactive) | > 100 µM (inactive) | > 100 µM (inactive) | > 100 µM (inactive) | > 100 µM (inactive) | > 100 µM (inactive) |
| CCOC(=O)C#Cc1ccc([N+](=O)[O-])cc1 | 1.24 µM (inactive) | 3.44 µM (inactive) | 1.55 µM (inactive) | 4.18 µM (inactive) | 1.96 µM (inactive) | 3.24 µM (inactive) | 2.07 µM (inactive) | 1.98 µM (inactive) | 3.15 µM (inactive) | 3.19 µM (inactive) | 1.8 µM (inactive) | 2.52 µM (inactive) | 1.34 µM (inactive) | 2.68 µM (inactive) | 1.82 µM (inactive) | 2.01 µM (inactive) | 2.59 µM (inactive) | 10.4 µM (inactive) | 5.52 µM (inactive) | 1.28 µM (inactive) |
| CC[C@]12C=CCN3CC[C@@]4(c5cc(N=O)c(OC)cc5N(C)[C@H]4[C@@](O)(C(=O)NC(Cc4c[nH]c5ccccc45)C(=O)OC)[C@@H]1O)[C@@H]32 (stereo not given in full) | 15.3 µM (inactive) | 17.1 µM (inactive) | 30 µM (inactive) | 22.4 µM (inactive) | 17.7 µM (inactive) | 18.2 µM (inactive) | 3.92 µM (inactive) | 16 µM (inactive) | 20.9 µM (inactive) | 20.3 µM (inactive) | 12.3 µM (inactive) | 24.2 µM (inactive) | 16.7 µM (inactive) | 24.5 µM (inactive) | 12.5 µM (inactive) | 6.93 µM (inactive) | 17.7 µM (inactive) | 29.4 µM (inactive) | 31.3 µM (inactive) | 12.6 µM (inactive) |
